The source of these data is patent US20050054629A1, “Compounds and methods of treating cell proliferative diseases” (priority 2002, published 2005).

For assay [1], the system named is HCT116 colon adenocarcinoma. Briefly: Cytotoxicity assay (MTT), 6 days. In kind it is cell-based, human. The settings on record: 6 days of treatment, read-out: Toxicity 6d (IC 50, μM) HCT116. The method in brief:
(§1)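 Compound was added 24 h after seeding at six concentrations from 0 to 50 μM. Six days later, viability was assessed by MTT reduction and absorbance at 550 nm, giving IC50 values from triplicate assays.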

The subject of another assay is NIH3T3. Briefly: Cytoskeleton analysis, actin staining (FITC-phalloidin). In kind it is cell-based, mouse. The conditions noted are these: for Cell architecture modification actin staining (R: ruffles; FC: focal complexes) NIH3T3: 24 h treatment. Here is the method:
(§2) Since major rearrangements of cytoskeleton are observed in tumor cells and since the small GTPases are known to regulate these events, analysis of actin cytoskeleton was performed. Subconfluent cells seeded onto coverslips were treated with different concentration of compound (1, 10, 17.5, 25 and 50 μM) or vehicle for 24 h, before being fixed in 4% formaldehyde for 15 min., permeabilized in 0.2% Triton X100 for 5 minutes and incubated in PowerBlock (Biogenex) for 10 min. Actin filaments were stained with 0.5 μg/ml fluorescein isothiocyanate (FITC)-labelled phalloidin for 1 hour. Analysis was performed using an inverted fluorescent microscope.

For another assay, the system named is MCF-7 breast carcinoma. The experiment in a line: Cytotoxicity assay (MTT), 6 days. The assay is classed as cell-based. The settings on record: Homo sapiens, MCF7, 144 h, 6 days of treatment, read-out: Toxicity 6d (IC 50, μM) MCF7. The method in brief:
as §1

The test system of another assay is H460 lung carcinoma. Briefly: Cytotoxicity assay (MTT), 6 days. In kind it is cell-based. The settings on record: Homo sapiens, NCI-H460, 144 h, 6 days of treatment, read-out: Toxicity 6d (IC 50, μM) H460. The method in brief: as §1
In assay [2] the test system is MDA-MB-231 breast carcinoma. Briefly: Cytotoxicity assay (MTT), 6 days. The assay is classed as cell-based. The conditions noted are these: Homo sapiens, MDA-MB-231, 144 h, 6 days of treatment, read-out: Toxicity 6d (IC 50, μM) MDA231. In short, it runs like this:
as §1

A further assay deals with Rac. The experiment in a line: Rac-dependant signaling pathway analysis (reporter system). Details: key: −: no effect of the compound was observed; +: an effect of the compound was observed. The assay is classed as cell-based. Here is the method:
(§3) The impact of the compounds on Ras and Rac signaling pathways was analysed with two reporter systems described by Imler (Nature 1988) and Lin (Science, 1995) respectively on one hand, and by a colony formation assay in the presence of constitutively activated Ras (RasV12) and Rac (RacV12) on the other hand. For this latter experiment, fifty percent confluent NIH3T3 cells in a 10 cm diameter petri dish were transfected with 0.5 μg pSV2-RasV12 or 0.5 μg pEXV RacV12 plasmids plus 100 ng of pSV2-neomycin plasmid using Lipofectamine-Plus reagent (Invitrogen) according to the manufacturer's instructions. Forty-eight hours later, cells were trypsinised, splitted to ⅓, and incubated in the presence of complete medium supplemented with 400 μg/ml geneticin (Invitrogen) and different doses of compound (1, 10, 17.5, 25 and 50 μM) until emerging resistant clones appear (2-3 weeks). The medium was renewed every 3 days. Colonies with a minimum of 50 cells were counted after staining with Fuschin 2%.

The test system of a further assay is cell architecture. The experiment in a line: Cell architecture modification, phase contrast. Details: key: −: no effect of the compound was observed; +: an effect of the compound was observed. The assay is classed as cell-based.
In the next assay the test system is Ras. Briefly: Ras-dependant signaling pathway analysis (reporter system). The assay is classed as cell-based. More on the design: key: −: no effect of the compound was observed; +: an effect of the compound was observed. Here is the method: as §3
In the next assay the test system is NIH3T3 cells. Briefly: Colony formation assay with constitutively activated Ras (RasV12) and Rac (RacV12). In kind it is cell-based, mouse. More on the design: key to Colony formation: −: no effect of the compound was observed; +: an effect of the compound was observed. The protocol: as §3
The test system of a further assay is MDA231. The experiment in a line: Cytoskeleton analysis, actin staining (FITC-phalloidin). In kind it is cell-based, human. The settings on record: 24 h treatment. The protocol: as §2
A further assay has as its system NIH3T3 mouse fibroblasts. Briefly: Cytotoxicity assay (MTT), 6 days. The settings on record: NIH3T3, 144 h, 6 days of treatment, read-out: Toxicity 6d (IC 50, μM) NIH3T3. In kind it is cell-based. In short, it runs like this: as §1
The test system of the next assay is MRC-5. The experiment in a line: Cytotoxicity assay (MTT), 6 days. In kind it is cell-based. The conditions noted are these: Homo sapiens, MRC5, 144 h, 6 days of treatment, read-out: Toxicity 6d (IC 50, μM) MRC-5. In short, it runs like this: as §1
The next assay has as its system MCF10-A. The experiment in a line: Cytotoxicity assay (MTT), 6 days. The assay is classed as cell-based. The conditions noted are these: Homo sapiens, MCF-10A, 144 h, 6 days of treatment, read-out: Toxicity 6d (IC 50, μM) MCF10-A. The method in brief:
as §1

The subject of assay [3] is MDA-MB-231 cells. The experiment in a line: Matrigel invasion assay (Boyden chamber). The assay is classed as cell-based, human. The settings on record: for Invasion: MDA-MB-231, Boyden chamber, matrigel. Here is the method: Chemoinvasion assay was performed in Boyden chamber as described by Albini et al (Cancer Res, 1987) with some modifications. Polycarbonate membranes with 8 μm pores were coated with matrigel (125 μg/cm^2) at room temperature for 48 h. Two hours before experiments, the matrix was […] with serum-free medium containing 0.1% BSA.
(§4) One day after seeding, 10^6 MDA-MB-231 cells were treated overnight with different concentrations of compounds (1, 10, 17.5, 25 and 50 μM). Cells were collected with Versene (Invitrogen), counted with trypan blue exclusion, rinsed twice in serum-free medium containing 0.1% BSA and resuspended in serum-free medium containing 0.1% BSA plus the appropriate concentration of compound. 10^5 treated cells were placed in the upper chamber. Medium containing 10% of FBS plus the appropriate concentration of compound was placed in the lower chamber as a chemoattractant. The Boyden chamber was incubated 6 hours at 37° C. before the cells were fixed and stained with Diff-Quick (Dade-Berhing). Cells on the upper part of the filters were removed using a cotton swab. Cells on the underside of the filters were visualised and counted under light microscope.

In assay [4] the test system is MDA-MB-231 cells. The experiment in a line: Migration assay (Boyden chamber, non-coated filters). In kind it is cell-based, human. The conditions noted are these: MDA-MB-231, Boyden chamber. The protocol:
as §4
The migration assay was performed the same way, using non-coated filters.

Like-named read-outs stand apart in the source and are kept apart here.

`O=c1cc(CO)occ1OCCCCCOc1ccc(Cl)c(Cl)c1` [EH5500, 5-[5-(3,4-Dichlorophenyloxy)pentyloxy]-2-(hydroxymethyl)-4H-pyran-4-one]: the IC50 in assay [1] (Homo sapiens, HCT-116, 144 h) is 50 µM; in the assay on MCF-7 breast carcinoma, 35 µM; in the assay with H460 lung carcinoma it was 15 µM; in [2] it was greater than 50 µM. Besides, in the assay with NIH3T3, the “general morphology of NIH3T3 cells, as detected by β-actin staining” value is recorded as “affected”. The “Cell architecture modification actin staining (R: ruffles; FC: focal complexes) NIH3T3” value with NIH3T3 was “cell destructuration”. In addition, the “Small GTPases activities Rac” value in the assay with Rac is “−”. Further, the “Cell architecture modification phase contrast” value with cell architecture is “+”. For the same compound, the “Small GTPases activities Ras” value with Ras was “−”. Also, in the assay with NIH3T3 cells, the Colony formation entry was “−”.

As to `O=c1cc(COCc2ccccc2)occ1OCCCCCOc1ccc(Cl)c(Cl)c1` [EH7701, 2-(Benzyloxymethyl)-5-[5-(3,4-dichlorophenyloxy)pentyloxy]-4H-pyran-4-one], the “Cell architecture modification actin staining MDA231” value with MDA231 is “cell spreading”. Also, the IC50 in assay [1] was 7.5 µM; in assay [1] (Homo sapiens, HCT-116, 144 h) it was no more than 15 µM; in the assay on NIH3T3 mouse fibroblasts, 40 µM; in the assay with MRC-5 it was 20 µM; with MCF-7 breast carcinoma, 17.5 µM; in the assay on H460 lung carcinoma it was 6 µM. In addition, the IC50 in assay [2] was 22.5 µM; in the assay on MCF10-A, greater than 50 µM. Also, the Invasion result in the assay with MDA-MB-231 cells [3] is reported as “No effect”. The “Cell architecture modification phase contrast” value with cell architecture is reported as “−”.

In the case of `O=c1cc(CO)occ1OCCCCCOc1cccc(Cl)c1` [EH10600, 5-[5-(3-Chlorophenyloxy)pentyloxy]-2-(hydroxymethyl)-4H-pyran-4-one], the IC50 is greater than 50 µM in assay [1] (Homo sapiens, HCT-116, 144 h); 40 µM in the assay with MCF-7 breast carcinoma; 25 µM in the assay with H460 lung carcinoma; 10 µM in [2]. Also, the “general morphology of NIH3T3 cells, as detected by β-actin staining” value in the assay on NIH3T3 was “affected”. Besides, in the assay on NIH3T3, the “Cell architecture modification actin staining (R: ruffles; FC: focal complexes) NIH3T3” value was “cell destructuration”. The “Small GTPases activities Rac” value with Rac is “−”. Also, the “Cell architecture modification phase contrast” value in the assay with cell architecture was “+”. The “Small GTPases activities Ras” value in the assay on Ras is on record as “−”. Besides, in the assay on NIH3T3 cells, the Colony formation result is on record as “−”.

As to `CCCc1c(OCCCCCCOc2coc(CO)cc2=O)ccc(Cl)c1Cl` [EH16701], the “Cell architecture modification actin staining MDA231” value with MDA231 is on record as “cell spreading”. Further, the IC50 is 8.5 µM in assay [1]; no more than 15 µM in assay [1] (Homo sapiens, HCT-116, 144 h); greater than 50 µM with NIH3T3 mouse fibroblasts; greater than 50 µM with MRC-5; 15 µM with MCF-7 breast carcinoma; 7 µM in the assay on H460 lung carcinoma. In addition, the IC50 was 47.5 µM in assay [2] and greater than 50 µM in the assay on MCF10-A. Besides, the Invasion entry in the assay on MDA-MB-231 cells [3] is “No effect”. The “Cell architecture modification phase contrast” value in the assay with cell architecture is “−”.

Take `O=c1cc(CO)occ1OCCCCOc1ccc(Cl)c(Cl)c1` [EH17700, 5-[4-(3,4-Dichlorophenyloxy)butyloxy]-2-(hydroxymethyl)-4H-pyran-4-one]: the IC50 was 30 µM in assay [1] (Homo sapiens, HCT-116, 144 h); greater than 50 µM in the assay on MRC-5; 20 µM with MCF-7 breast carcinoma; 15 µM in the assay with H460 lung carcinoma; 15 to 20 µM in assay [2]. Besides, the “Small GTPases activities Rac” value in the assay on Rac was “−”. For the same compound, in the assay on cell architecture, the “Cell architecture modification phase contrast” value is “−”. In addition, the “Small GTPases activities Ras” value in the assay with Ras is “−”. Also, the Colony formation entry in the assay on NIH3T3 cells was “−”. For the same compound, in the assay with MDA-MB-231 cells [4], the Migration result is “no effect”.

Take `CCCc1c(OCCCCCCCOc2coc(CO)cc2=O)ccc(Cl)c1Cl` [EH17701, 5-[7-(3,4-Dichloro-2-propylphenyloxy)heptyloxy]-2-(hydroxymethyl)-4H-pyran-4-one]: the “Cell architecture modification actin staining MDA231” value in the assay on MDA231 is listed as “cell spreading”. In addition, the IC50 with MRC-5 is 17.5 µM; in the assay on MCF-7 breast carcinoma, 15 µM; in the assay on H460 lung carcinoma, 5 to 10 µM; in assay [2] it was 35 µM; in the assay with MCF10-A, greater than 50 µM. Besides, the “concentration giving significant inhibition of invasive properties of MDA-MB-231 cells” value in the assay on MDA-MB-231 cells [3] is 17.5 µM. Moreover, the “Cell architecture modification phase contrast” value in the assay on cell architecture is “−”.
